Test results reported in patent US20100144779A1, “Marine Alkalod Makaluvamines and Derivatives Thereof” (THE UAB RESEARCH FOUNDATION, priority 2007, published 2010).
Read-outs that look alike come from different tables or passages of the source.

Tests used:
Format in all cases: cell-based, human
[1] = tested on: HCT-116; experiment: XTT cytotoxicity assay; conditions: read-out: Inhibition of Cancer Cell Proliferation (IC50) HCT-116
Procedure: (§1) In initial experiments, compounds 4a-g and 7c-g were evaluated for their cytotoxicity against human breast cancer cell lines MCF-7 and MDA-MB-468 and human colon cancer cell line HCT-116. The makaluvamine compounds provided in Table 2 were also evaluated for their cytotoxicity against human breast cancer cell lines MCF-7. Compound nos. 8 and 27-33 were not evaluated in this experiment. Cells were obtained from ATCC (Manassas, Va.). For each derivative the IC50 value was determined using data generated from 2-4 independent tetrazolium-based (XTT) cytotoxicity assays (R & D Systems Inc., Minneapolis, Minn.) according to the manufacturer's instructions. […] MCF-7, MDA-MD-468 and HCT-116 cells were grown at 37 degrees C. in a humidified atmosphere with complete growth media supplemented with fetal bovine serum. Growth media was changed 2-3 times per week as required.

[2] = tested on: MCF-7; experiment: XTT cytotoxicity assay
Procedure: as §1

[3] = tested on: MDA-MB-468; experiment: XTT cytotoxicity assay; conditions: read-out: Inhibition of Cancer Cell Proliferation (IC50) MDA-MB-468
Procedure: as §1

[4] = tested on: MCF7 cells; experiment: MTT growth inhibition assay; conditions: for IC50: Homo sapiens, read-out: Growth inhibitory activity (IC50) in MCF7 cells
Procedure: The cell lines were obtained from the American Type Culture Collection (Rockville, Md.) and were grown as follows: MCF-7 (p53 wt) breast cancer cells were grown in DMEM media containing 1 mM non-essential amino acids, Earle's BSS, 1 mM Na pyruvate, and 10 mg/L bovine insulin.
All media contained 10% FBS and 1% penicillin/streptomycin unless otherwise specified. The effects of disclosed compounds on human cancer cell growth, expressed as the percentage of cell survival, were determined by the MTT [3-(4,5-Dimethyl-2-thiazolyl)-2,5-diphenyl-2H-tetrazolium bromide] assay. Cells were grown in 96-well plates and exposed to the test compounds (0, 0.01, 0.1, 1, 10, 100 μM) for 72 hr followed by addition of 10 μL MTT solution (5 mg/mL; Sigma; St. Louis, Mo.) to each well. The plates were incubated for 2-4 hr at 37° C. The supernatant was then removed and formazan crystals were dissolved with 100 μL of DMSO. The absorbance at 570 nm was recorded with an OPTImax microplate reader (Molecular Devices; Sunnyvale, Calif.). The cell survival percentages were calculated by dividing the mean OD of compound containing wells by that of DMSO-control wells. Three separate experiments were accomplished to determine the IC50.

[5] = tested on: p21; experiment: Protein expression, Western blot in MCF-7 cells; conditions: 1 μM, 6 h (FIG. 4A)
Procedure: (§2) In FIG. 4A, MCF-7 cells were exposed to 1 μM concentration of the indicated compounds for 6 hours. Western blots were probed with antibodies specific for the proteins indicated. Numbers below each lane show densitometry readings for each lane as compared to control. […] Western blots were probed with antibodies specific for the proteins indicated.
(§3) To determine the disclosed compounds effect on protein expression in human breast cancer cells, cultured MCF-7 cells were exposed to various concentrations of the test compounds for 6 h (FIG. 4A) or 24 h (FIG. 4B). Cell lysates were fractionated with identical amounts of protein by SDS-PAGE and transferred to Bio-Rad trans-Blot nitrocellulose membranes (Bio-Rad Laboratories, Hercules, Calif.). The nitrocellulose membrane was incubated in blocking buffer (Tris-buffered saline containing 0.1% Tween 20 and 5% nonfat milk) for 1 h at room temperature, then with the appropriate primary antibody overnight at 4° C. or 2 h at room temperature with gentle shaking. Finally, the membrane was washed three times with the washing buffer (Tris-buffered saline containing 0.1% Tween 20) for 15 min, incubated with goat anti mouse/rabbit IgG-horseradish peroxidase-conjugated antibody (Bio-Rad) for 1 h at room temperature, and washed again (in triplicate). The protein of interest was detected by enhanced chemiluminescence reagents from PerkinElmer LAS, Inc (Boston, Mass.).

[6] = tested on: p53; experiment: Protein expression, Western blot in MCF-7 cells; conditions: 1 μM, 6 h (FIG. 4A)
Procedure: as §2, §3

[7] = tested on: MDM2; experiment: Protein expression, Western blot in MCF-7 cells; conditions: 1 μM, 6 h (FIG. 4A)
Procedure: as §2, §3

[8] = average ± standard deviation of 2-4 independent assays
[9] = XTT, average ± standard deviation of 2-4 independent assays, read-out: Inhibition of Cancer Cell Proliferation (IC50) MCF-7
[10] = Homo sapiens, MCF7, Table 2, XTT, read-out: IC50 (μM) MCF-7
[11] = Table 2, XTT, read-out: IC50 (μM) MCF-7

Row | Compound | IC50 [2, 10] | IC50 [2, 11] | IC50 ([4]; MCF7, Table 5, MTT, 72 hr) | Growth inhibitory activity (IC50) in MCF7 cells ([4]; Table 5, MTT, 72 hr) | expression of p21 [5] | expression of p53 [6] | also measured
1 | Cc1ccc(S(=O)(=O)n2cc3c4c2C(=O)C(NCCc2c[nH]c5ccccc25)=CC4=NCC3)cc1 [Compound 7g] |  |  |  |  |  |  | IC50 [1, 8]: 800 ± 300 nM; IC50 [2, 9]: 1.2 ± 0.03 µM; IC50 [3, 8]: 1400 ± 900 nM
2 | Cc1ccc(CNC2=CC3=NCCc4c[nH]c(c43)C2=O)cc1 [Compound 10] | 1 to 5 µM | 1.69 µM |  |  |  |  | 
3 | Cc1ccc(S(=O)(=O)n2cc3c4c2C(=O)C(NCCc2ccc5c(c2)OCO5)=CC4=NCC3)cc1.O=C(O)C(F)(F)F [Compound 5] |  |  | 1620 nM | μM range | increased the expression | increased the expression | 
4 | Cc1ccc(S(=O)(=O)n2cc3c4c2C(=O)C(NCc2ccc(Cl)cc2)=CC4=NCC3)cc1.O=C(O)C(F)(F)F [Compound 21] | < 1 µM | 0.83 µM | 774 nM | nM range | decreased the expression | decreased the expression | expression of MDM2 [7]: inhibited the expression
5 | COc1cc([C@@H]2c3cc4c(cc3[C@@H](O[C@@H]3O[C@@H]5CO[C@@H](C)O[C@H]5[C@H](O)[C@H]3O)[C@H]3COC(=O)[C@H]23)OCO4)cc(OC)c1O [Etoposide, reference compound] | 30.5 µM |  |  |  |  |  | IC50 ([1]; Homo sapiens, HCT-116, average ± standard deviation of 2-4 independent assays): 1700 nM; IC50 ([2]; Homo sapiens, MCF7, XTT, average ± standard deviation of 2-4 independent assays, read-out: Inhibition of Cancer Cell Proliferation (IC50) MCF-7): 35.6 µM; IC50 ([3]; Homo sapiens, MDA-MB-468, average ± standard deviation of 2-4 independent assays): 13600 nM
6 | O=C(O)C(F)(F)F.O=C1C(NCCc2ccc([N+](=O)[O-])cc2)=CC2=NCCc3c[nH]c1c32 [Compound 8] |  |  | 427 nM | nM range | decreased the expression | decreased the expression | expression of MDM2 [7]: inhibited the expression
7 | O=C(O)C(F)(F)F.O=C1C(NCCc2ccc(Cl)cc2)=CC2=NCCc3c[nH]c1c32 [Compound 24] |  |  | 584 nM | nM range | decreased the expression | increased the expression | expression of MDM2 [7]: inhibited the expression
8 | Cc1ccc(S(=O)(=O)n2cc3c4c2C(=O)C(NCCc2cc(Br)c(O)c(Br)c2)=CC4=NCC3)cc1 [Compound 7f] |  |  |  |  |  |  | IC50 [1, 8]: 1000 ± 200 nM; IC50 [2, 9]: 2.3 ± 1.1 µM; IC50 [3, 8]: 1500 ± 900 nM
9 | COc1ccc(CCNC2=CC3=NCCc4c[nH]c(c43)C2=O)cc1.O=C(O)C(F)(F)F [Compound 16] |  |  | 200 nM | nM range | decreased the expression | decreased the expression | expression of MDM2 [7]: inhibited the expression
10 | Cc1ccc(CNC2=CC3=NCCc4cn(S(=O)(=O)c5ccc(C)cc5)c(c43)C2=O)cc1 [Compound 9] | 1 to 5 µM | 1.48 µM |  |  |  |  | 
11 | Cc1ccc(S(=O)(=O)n2cc3c4c2C(=O)C(NCCc2ccc([N+](=O)[O-])cc2)=CC4=NCC3)cc1 [Compound 7] | < 1 µM | > 1 µM |  |  |  |  | 
12 | COc1ccc(CCNC2=CC3=NCCc4cn(S(=O)(=O)c5ccc(C)cc5)c(c43)C2=O)cc1.O=C(O)C(F)(F)F [Compound 15] | 1 to 5 µM | 1.33 µM | 1050 nM | μM range | decreased the expression | decreased the expression | expression of MDM2 [7]: inhibited the expression
13 | COc1ccc(CNC2=CC3=NCCc4cn(S(=O)(=O)c5ccc(C)cc5)c(c43)C2=O)cc1OC.O=C(O)C(F)(F)F [Compound 17] | < 1 µM | 0.65 µM | 1010 nM | μM range | increased the expression | increased the expression | 
14 | Cc1ccc(S(=O)(=O)n2cc3c4c2C(=O)C(NCc2ccc5c(c2)OCO5)=CC4=NCC3)cc1.O=C(O)C(F)(F)F [Compound 1] | < 1 µM | 0.78 µM |  |  | increased the expression |  | 
15 | Cc1ccc(S(=O)(=O)n2cc3c4c2C(=O)C(NCCc2ccccc2)=CC4=NCC3)cc1 [Compound 7d] |  |  |  |  |  |  | IC50 [1, 8]: 500 nM; IC50 [2, 9]: 1.5 ± 0.1 µM; IC50 [3, 8]: 800 ± 100 nM
16 | Cc1ccc(S(=O)(=O)n2cc3c4c2C(=O)C(NCCc2ccc(F)cc2)=CC4=NCC3)cc1.O=C(O)C(F)(F)F [Compound 29] |  |  | 1920 nM | μM range | increased the expression | increased the expression | 
17 | Cc1ccc(CCNC2=CC3=NCCc4c[nH]c(c43)C2=O)cc1.O=C(O)C(F)(F)F [Compound 12] |  |  | 833 nM | nM range | decreased the expression | increased the expression | expression of MDM2 [7]: inhibited the expression
18 | Cc1ccc(S(=O)(=O)n2cc3c4c2C(=O)C(NCCc2ccc(Cl)cc2)=CC4=NCC3)cc1 [Compound 23] | 1 to 5 µM | 1.55 µM |  |  |  |  | 
19 | COC1=CC(CNC2=CC3=NCCc4c[nH]c(c43)C2=O)=CC(OC)C1OC.O=C(O)C(F)(F)F (centres unmarked) [Compound 4] | 30.5 µM |  | 515 nM |  |  | increased the expression | 
20 | COc1ccc(CNC2=CC3=NCCc4cn(S(=O)(=O)c5ccc(C)cc5)c(c43)C2=O)cc1 [Compound 13] | 1 to 5 µM | 1.02 µM |  |  |  |  | 
21 | O=C(O)C(F)(F)F.O=C1C(NCCc2ccc(Cl)c(Cl)c2)=CC2=NCCc3c[nH]c1c32 [Compound 26] |  |  |  | nM range | increased the expression | increased the expression | IC50 ([4]; MCF7, 72 h): 495 nM
22 | O=C(O)C(F)(F)F.O=C1C(NCCc2ccc(F)cc2)=CC2=NCCc3c[nH]c1c32 [Compound 30] |  |  | 787 nM | nM range | increased the expression | increased the expression | 
23 | COc1ccc(CCNC2=CC3=NCCc4cn(S(=O)(=O)c5ccc(C)cc5)c(c43)C2=O)cc1OC [Compound 19] | < 1 µM | > 1 µM |  |  |  |  | 
24 | COc1ccc(CNC2=CC3=NCCc4c[nH]c(c43)C2=O)cc1OC [Compound 18] | 5 to 15 µM | 5.98 µM |  |  |  |  | 
25 | O=C(O)C(F)(F)F.O=C1C(NCc2ccc3c(c2)OCO3)=CC2=NCCc3c[nH]c1c32 [Compound 2] | 5 to 15 µM | 5.22 µM | 809 nM | nM range | decreased the expression | increased the expression | 
26 | COC1=CC(CNC2=CC3=NCCc4cn(S(=O)(=O)c5ccc(C)cc5)c(c43)C2=O)=CC(OC)C1OC (centres unmarked) [Compound 3] | < 1 µM | 0.96 µM |  |  |  |  | 
27 | Cc1ccc(CCNC2=CC3=NCCc4cn(S(=O)(=O)c5ccc(C)cc5)c(c43)C2=O)cc1 [Compound 11] | 1 to 5 µM | 1.47 µM |  |  |  |  | 
28 | O=C1C(NCc2ccc(Cl)cc2)=CC2=NCCc3c[nH]c1c32 [Compound 22] | 1 to 5 µM | 1.33 µM |  |  |  |  | 
